Test results: patent US9433577B2, “Pharmaceutical composition comprising oligopeptides” (Merck Patent GmbH, priority 2009, dated 2016)
≈ marks a conversion by molar mass, not a printed value. Each block holds one compound with its values, some of them ahead of it.

Experiments:
[1] = Dynamic vapour experiments (Water Vapour Sorption, 25° C.); format: physicochemical; details: for mass loss in the first desorption cycle / initial drying step (0% rh) / total mass loss in the second desorption cycle: Water Vapour Sorption; for maximum weight gain upon water vapour adsorption (assembly of water molecules in the lattice): at elevated rh
Description: (§1) A SMS DVS Intrinsic is used for the dynamic vapour experiments. The results are obtained by standard techniques as described in Rolf Hilfiker, ‘Polymorphism in the Pharmaceutical Industry’, Wiley-VCH. Weinheim 2006 (Chapter 9: Water Vapour Sorption, and references therein). […] Upon water vapour adsorption, an assembly of water molecules in the lattice is observed, with a maximum weight gain of approx. 8 wt % at elevated rh. In the second desorption cycle a total mass loss of approx. 9.9 wt % is observed. For a Cilengitide Dihydrate Di-Methanolate, the calculated Methanol content equals 9.3 wt %.
as §1, with “6.4” for “8”, “9.2” for “9.9”, “Di-Ethanolate,” for “Di-Methanolate,”, “Ethanol” for “Methanol”, “12.5” for “9.3”

[2] = Thermodynamic stability of crystalline forms (slurry / vapour atmosphere); format: physicochemical
Description: Wetted material in this regard is preferably a mixture of the respective anhydrate with at least 5% by weight, more preferably at least 10% by weight and especially 20% by weight, of the respective aqueous system.
Upon water vapour adsorption, an assembly of water molecules in the lattice is observed, with a maximum weight gain of approx. 6.4 wt % at elevated rh. In the second desorption cycle a total mass loss of approx. 9.2 wt % is observed. For a Dihydrate Di-Ethanolate of the compound of formula Id, the calculated Ethanol content equals 12.5 wt %.
Also the pure form A1 can be manufactured by competitive slurry conversion experiments with a mixture of a pseudopolymorphic form (for example S1, S2, S3 or mixtures of these) and A1 (1:1) in Acetone, Acetonitrile, Isopropanol, physiological NaCl solution, Phosphate buffer (pH 7.4) and 1:1 (v:v) mixtures of Acetone, Acetonitrile, Isopropanol with Water at RT (25° C.).
Approx. 20 mg of a pseudopolymorphic form (for example S1, S2, S3 or mixtures of these) and 20 mg of form A1 of Cilengitide are dispersed in 200-700 μl solvent at room temperature. The dispersion is stirred for 5 days and additionally 26 days (long-term experiment) at RT (25° C.) by a magnetic stirrer and finally filtered. […]

[3] = Saturation solubility of Cilengitide solid forms in water and solvents; format: physicochemical
Method: Solubility in this regard is preferably refers to the saturation solubility, which is preferably the maximum mass of the respective compound, which can be solubilised or dissolved in a solvent at a respective temperature and at a specific pressure, preferably atmospheric pressure.
10 mL of solvent is placed in an amber glass ampul and sufficient substance is added to yield a distinct sediment that remains on the bottom after mixing thoroughly. After standing for 15 minutes and mixing again the ampuls are sealed and shaken in a thermostatically controlled water bath (20° C./16 hours or 25° C./16 hours, preferably 20° C./16 hours). Afterwards the ampuls are opened and the supernatant solution is filtered until the filtrate is clear. The content of the substance is determined photometrically in an aliquot by means of the specific adsorption coefficient. The respective dilution of the solvent without substance serves as blank. The solubility is expressed in the dimension of g substance in 100 mL or mg substance in 1 mL, preferably in mg substance in 1 mL. Preferably, this method is performed at normal atmospheric pressure and especially at the standardised “normal” atmospheric pressure, i.e. 1 atm=1.01325 bar.

[4] = Pharmacokinetic study in monkeys; details: in vivo, Cynomolgus monkey, animal 583, dose 11.8 mg/kg, suspension Cilengitide 300 mg/mL + DMPG 2 mg/mL, read-out: MSC1097999
Method: • Composition (Suspension) administered • Cilengitide: 300 mg/mL • DMPG: 2 mg/mL • Phenol: 0.5% • NaCl: 0.9% • Species/strain and number of animals • Monkey, Cynomolgus • Dose: 12 mg/kg (40 μL suspension/kg) • Sampling time points: 0.25, 0.5, 2, 4, 8 hours post dose: […]

Compound: CC(C)[C@H]1C(=O)N[C@@H](CCCNC(=N)N)C(=O)NCC(=O)N[C@@H](CC(=O)O)C(=O)N[C@H](Cc2ccccc2)C(=O)N1C [crystalline form A1, cyclo-(Arg-Gly-Asp-DPhe-NMeVal)]
solubility at 16 h ([3]; water, at 20° C. or 25° C., preferably at 20° C.): ~7 mg/mL (≈ 11.9 mM)
hygroscopicity classification acc. to Ph. Eur. criteria ([1]; water uptake up to 98% relative humidity): non-hygroscopic
thermodynamic stability of the form ([2]; in the presence of aqueous based solvents, absence of methanol and/or ethanol): thermodynamically stable form

Compound: CC(C)[C@H]1C(=O)N[C@@H](CCCN=C(N)N)C(=O)NCC(=O)N[C@@H](CC(=O)O)C(=O)N[C@H](Cc2ccccc2)C(=O)N1C [MSC1097999]
level at 0.25 h ([4]; 0.250 h): 0.586 µg/mL
level at 0.5 h ([4]; 0.500 h): 0.967 µg/mL
level at 2 h ([4]; 2.00 h): 0.892 µg/mL
level at 4 h ([4]; 4.00 h): 0.605 µg/mL
level at 8 h ([4]; 8.00 h): 0.537 µg/mL

Next, values leading:

mass loss in the first desorption cycle / initial drying step (0% rh) [1]: approx. 6.5 wt %
total mass loss in the second desorption cycle [1]: approx. 9.2 wt %
mass loss in the first desorption cycle / initial drying step (0% rh) ([1]; listed as crystalline form S2): approx. 6.5 wt %
total mass loss in the second desorption cycle ([1]; listed as crystalline form S2): approx. 9.2 wt %
maximum weight gain upon water vapour adsorption (assembly of water molecules in the lattice) [1]: approx. 6.4 wt %
maximum weight gain upon water vapour adsorption (assembly of water molecules in the lattice) ([1]; listed as crystalline form S2): approx. 6.4 wt %
thermodynamic stability of the form ([2]; atmosphere of 100% Ethanol vapour): thermodynamically stable form
Compound: cyclo-(Arg-Gly-Asp-DPhe-NMeVal) [form S2]

mass loss in the first desorption cycle / initial drying step (0% rh) [1]: approx. 8 wt %
total mass loss in the second desorption cycle [1]: approx. 9.9 wt %
maximum weight gain upon water vapour adsorption (assembly of water molecules in the lattice) [1]: approx. 8 wt %
Compound: cyclo-(Arg-Gly-Asp-DPhe-NMeVal) [form S1]

Solubility ([3]; solvent H2O/Acetone (1:1)): 22.7 mg/mL
mass loss in the first desorption cycle / initial drying step (0% rh) [1]: ca. 9 wt %
maximum weight gain upon water vapour adsorption (assembly of water molecules in the lattice) [1]: ca. 10 wt %
Compound: CC(C)[C@H]1C(=O)N[C@@H](CCCNC(=N)N)C(=O)NCC(=O)N[C@@H](CC(=O)O)C(=O)N[C@H](Cc2ccccc2)C(=O)N1C [tetrahydrate Form S3, cyclo-(Arg-Gly-Asp-DPhe-NMeVal)]
